Like-named read-outs stand apart in the source and are kept apart here.
Assays:
human CAT2B (SLC7A2B) [1] = molecular target: T1, human CAT2B (SLC7A2B) (Homo sapiens, UniProt P52569); experiment: Inhibition of CAT2B-mediated substrate uptake in HEK CAT2B cells; format: cell-based
T1 construct: expressed in transfected cells
Procedure: (§1) Cell lines and basic cell culture conditions have previously been described, [24]. The original choice of human embryonic kidney cells (HEK293) cells for transfection with CAT1-, CAT2A- or CAT2B- was based on their reliable growth and well established propensity for transfection and cellular uptake experiments. In brief, uptake assays were performed using [^3H]-labeled substrate and human embryonic kidney (HEK293) cells stably overexpressing the empty vector only (HEK VCG418 and HEK VChygro, depending on selection conditions) or human CAT1 (HEK CAT1, gene: SLC7A1, NM_003045.4), CAT2A (HEK CAT2A, gene: SLC7A2A, NM_003046.5) or CAT2B (HEK CAT2B, SLC7A2B, NM_001008539.3). The cells were cultured in minimal essential medium containing 10% heat-inactivated fetal bovine serum, 100 U/l penicillin, 100 μg/ml streptomycin, and either G418 (800 µg/ml) or hygromycin B (260 µg/ml) at 37 °C and 5% CO2 with subculture as required. Trypsin (0.05%)-EDTA (0.02%) solution was used to detach cells. All cell culture media supplements were obtained from Invitrogen GmbH (Karlsruhe, Germany).
(§2) The transport assays were performed as previously described with minor modifications, [24]. Cells were seeded into poly-D-lysine-coated 12-well plates. Sodium butyrate (10 mmol/l) was added after 24 h of culture for 24 h to enhance CAT1, CAT2A or CAT2B protein expression. […] In order to identify the period of linear L-homoarginine uptake time dependence was assessed. Cells were incubated with the transport buffer containing 100 μmol/L L-homoarginine at 37 °C for 1, 2.5, 5, 10 and 30 min. For determination of kinetic parameters of CAT-mediated L-homoarginine transport increasing L-homoarginine concentrations and an incubation time of 2.5 min were used.
(§3) After cooling to 0 °C the cells were washed three times with ice-cold transport buffer and lysed with 0.2% SDS. The intracellular accumulation of radioactivity was determined by liquid scintillation counting (TriCarb 2800; PerkinElmer Life and Analytical Sciences, Inc.) after adding 4 ml of scintillation solution (Ultima Gold XR; PerkinElmer Life and Analytical Sciences, Inc., Rodgau-Jügesheim, Germany). A bicinchoninic acid assay was used to assess the protein concentrations. […]
(§4) Statistical analysis was performed using GraphPad Prism 5 (version 5.01, 2007, GraphPad Software, San Diego, CA, USA). Net transport data were calculated as the difference of uptake from cells transfected with the respective CAT transporter and the corresponding empty control vector. […] KM-values for the uptake transport were calculated using Michaelis–Menten enzyme kinetics. The corresponding IC50 values for inhibition were calculated by fitting the data to a sigmoid dose–response regression curve. […]

human CAT2A (SLC7A2A) [2] = molecular target: T2, human CAT2A (SLC7A2A) (Homo sapiens, UniProt P52569); experiment: Inhibition of CAT2A-mediated substrate uptake in HEK CAT2A cells; format: cell-based; settings: for inhibition of CAT2A-mediated transport of L-homoarginine: substrate L-homoarginine 100 µmol/l, inhibitor 1-10000 µmol/l, IC50 not calculable
T2 construct: expressed in transfected cells
T2 sequence (P52569 1-697 isoform P52569-2): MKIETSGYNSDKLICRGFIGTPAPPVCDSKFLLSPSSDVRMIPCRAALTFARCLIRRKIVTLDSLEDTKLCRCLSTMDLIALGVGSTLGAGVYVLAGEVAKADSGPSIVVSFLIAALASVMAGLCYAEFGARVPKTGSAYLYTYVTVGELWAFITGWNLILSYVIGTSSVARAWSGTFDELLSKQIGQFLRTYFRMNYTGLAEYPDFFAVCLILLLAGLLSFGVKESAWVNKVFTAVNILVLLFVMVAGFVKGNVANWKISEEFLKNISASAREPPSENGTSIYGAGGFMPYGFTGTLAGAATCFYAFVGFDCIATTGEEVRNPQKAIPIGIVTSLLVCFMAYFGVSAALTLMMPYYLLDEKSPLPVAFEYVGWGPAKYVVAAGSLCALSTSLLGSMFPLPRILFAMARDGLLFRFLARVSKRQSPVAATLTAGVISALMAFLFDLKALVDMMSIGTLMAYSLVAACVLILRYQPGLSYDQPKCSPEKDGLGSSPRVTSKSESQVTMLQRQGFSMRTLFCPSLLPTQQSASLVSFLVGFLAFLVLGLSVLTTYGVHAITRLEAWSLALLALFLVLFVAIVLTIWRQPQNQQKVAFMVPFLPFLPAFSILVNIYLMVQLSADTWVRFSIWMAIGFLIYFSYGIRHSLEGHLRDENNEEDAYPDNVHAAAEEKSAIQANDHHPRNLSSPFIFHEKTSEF
Procedure: as §1, with “All cell culture media supplements were obtained from Invitrogen GmbH (Karlsruhe, Germany).” left out
The transport assays were performed as previously described with minor modifications, [24]. […] In order to identify the period of linear L-homoarginine uptake time dependence was assessed. […]
as §3, with “Germany).” for “Germany). A bicinchoninic acid assay was used to assess the protein concentrations.”
as §4

human CAT1 (SLC7A1) [3] = molecular target: T3, human CAT1 (SLC7A1) (Homo sapiens, UniProt P30825); experiment: Inhibition of CAT1-mediated substrate uptake in HEK CAT1 cells; format: cell-based
T3 construct: expressed in transfected cells
T3 sequence (P30825 whole entry): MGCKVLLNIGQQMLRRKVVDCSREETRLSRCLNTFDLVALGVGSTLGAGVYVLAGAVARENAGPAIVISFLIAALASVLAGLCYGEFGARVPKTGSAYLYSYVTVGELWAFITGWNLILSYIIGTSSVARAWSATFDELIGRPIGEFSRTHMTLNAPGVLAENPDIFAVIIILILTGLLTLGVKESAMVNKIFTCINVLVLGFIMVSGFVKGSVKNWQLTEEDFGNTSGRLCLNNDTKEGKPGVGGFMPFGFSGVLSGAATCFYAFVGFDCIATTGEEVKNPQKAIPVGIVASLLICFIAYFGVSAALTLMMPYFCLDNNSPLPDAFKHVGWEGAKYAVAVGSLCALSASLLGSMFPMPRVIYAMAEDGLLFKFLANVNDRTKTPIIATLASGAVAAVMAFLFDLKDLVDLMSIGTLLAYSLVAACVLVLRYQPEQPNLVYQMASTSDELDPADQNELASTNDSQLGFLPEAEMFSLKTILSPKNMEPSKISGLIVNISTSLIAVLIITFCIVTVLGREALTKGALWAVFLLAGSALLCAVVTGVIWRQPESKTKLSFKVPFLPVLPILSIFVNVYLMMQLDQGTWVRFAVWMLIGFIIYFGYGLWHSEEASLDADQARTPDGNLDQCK
Procedure: as §1, §2, §3, §4

human CAT2A (SLC7A2A) [4] = molecular target: T2, human CAT2A (SLC7A2A); experiment: CAT2A-mediated uptake of [3H]-L-homoarginine in HEK293 cells overexpressing CAT2A; format: cell-based
Procedure: as §1
as §2, with “For determination of kinetic parameters of CAT-mediated L-homoarginine transport increasing L-homoarginine concentrations and an incubation time of 2.5 min were used.” left out
as §4

[5] = design: method as in PMID 27434056; settings: healthy volunteers, augmented from 2.9 µmol/l; cited from earlier work
rat hepatocytes = system: rat hepatocytes; design: method as in PMID 7068644; settings: read-out: KM for uptake of L-homoarginine by cells; cited from earlier work
human CAT1 (SLC7A1) [6] = molecular target: T3, human CAT1 (SLC7A1); experiment: CAT1-mediated uptake of [3H]-L-homoarginine in HEK293 cells overexpressing CAT1; format: cell-based
Procedure: as §1
as §2, with “For determination of kinetic parameters of CAT-mediated L-homoarginine transport increasing L-homoarginine concentrations and an incubation time of 2.5 min were used.” left out
as §4

fibroblasts = system: fibroblasts; design: method as in PMID 7040384; settings: read-out: KM for uptake of L-homoarginine by cells; cited from earlier work
human CAT2B (SLC7A2B) [7] = molecular target: T1, human CAT2B (SLC7A2B); experiment: CAT2B-mediated uptake of [3H]-L-homoarginine in HEK293 cells overexpressing CAT2B; format: cell-based
Procedure: as §1
as §2, with “For determination of kinetic parameters of CAT-mediated L-homoarginine transport increasing L-homoarginine concentrations and an incubation time of 2.5 min were used.” left out
as §4

[8] = substrate L-homoarginine 100 µmol/l, inhibitor 1-10000 µmol/l, read-out: IC50 for inhibition of CAT2B-mediated uptake of L-homoarginine
[9] = net uptake, 2.5 min incubation, 37 °C

T1 sequence (P52569 whole entry): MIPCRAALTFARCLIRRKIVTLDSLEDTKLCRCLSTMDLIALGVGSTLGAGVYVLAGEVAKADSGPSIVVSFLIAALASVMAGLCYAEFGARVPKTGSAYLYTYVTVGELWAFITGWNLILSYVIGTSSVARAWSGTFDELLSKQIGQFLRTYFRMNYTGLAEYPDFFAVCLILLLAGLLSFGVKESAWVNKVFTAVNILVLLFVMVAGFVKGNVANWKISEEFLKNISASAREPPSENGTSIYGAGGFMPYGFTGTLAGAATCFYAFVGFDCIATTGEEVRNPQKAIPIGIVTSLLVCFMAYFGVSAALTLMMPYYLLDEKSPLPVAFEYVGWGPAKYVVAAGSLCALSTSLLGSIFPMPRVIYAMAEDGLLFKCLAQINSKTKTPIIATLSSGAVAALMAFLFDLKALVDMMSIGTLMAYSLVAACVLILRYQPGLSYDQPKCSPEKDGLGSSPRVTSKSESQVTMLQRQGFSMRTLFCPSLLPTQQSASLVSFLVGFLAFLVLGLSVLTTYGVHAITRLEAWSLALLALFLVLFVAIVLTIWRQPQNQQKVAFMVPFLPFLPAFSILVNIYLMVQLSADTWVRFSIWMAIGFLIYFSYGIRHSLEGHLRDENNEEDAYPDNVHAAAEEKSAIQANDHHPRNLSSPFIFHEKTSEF

N=C(N)NCCC[C@H](N)C(=O)O [L-arginine, reference compound]
IC50 (human CAT2B (SLC7A2B) [1]; [8]): 1440 µM | inhibition of CAT2A-mediated transport of L-homoarginine (human CAT2A (SLC7A2A) [2]): could only be inhibited by very high (10000 µmol/l) concentrations | inhibition of CAT1-mediated net uptake of L-homoarginine at physiological concentrations (human CAT1 (SLC7A1) [3]; substrate L-homoarginine 2 µmol/l, inhibitor L-arginine 100 µmol/l, p < 0.01): significantly inhibited

CN(C)C(N)=NCCC[C@H](N)C(=O)O [ADMA, asymmetric dimethylarginine, reference compound]
IC50 (human CAT2B (SLC7A2B) [1]; [8]): 608 µM | inhibition of CAT2A-mediated transport of L-homoarginine (human CAT2A (SLC7A2A) [2]): could only be inhibited by very high (10000 µmol/l) concentrations | IC50 (human CAT1 (SLC7A1) [3]; substrate L-homoarginine 100 µmol/l, inhibitor 1-10000 µmol/l, read-out: IC50 for inhibition of CAT1-mediated uptake of L-homoarginine): 379 µM

NC(N)=NCCCC[C@H](N)C(=O)O [L-homoarginine]
cellular uptake of L-homoarginine vs control cells (human CAT2A (SLC7A2A) [4]; L-homoarginine 100 µmol/l, HEK CAT2A vs control cells, p < 0.001): 1.6 fold | saturation of CAT2A-mediated uptake (human CAT2A (SLC7A2A) [4]; increasing L-homoarginine concentrations): could not be reached | Vmax of CAT2A-mediated uptake (human CAT2A (SLC7A2A) [4]; net uptake, 2.5 min, 37 °C, only estimated, limited by maximally attainable L-homoarginine concentration): > 20 nmol × mg protein^−1 × min^−1 | IC50 (human CAT2B (SLC7A2B) [1]; read-out: IC50 for inhibition of CAT2B-mediated uptake of L-arginine, substrate L-arginine 1000 µmol/l, inhibitor 1–100000 µmol/l): 1220 µM | IC50 (human CAT2B (SLC7A2B) [1]; substrate ADMA 100 µmol/l, inhibitor 1–100000 µmol/l, read-out: IC50 for inhibition of CAT2B-mediated uptake of ADMA): 1860 µM | IC50 (human CAT2A (SLC7A2A) [2]; substrate ADMA 100 µmol/l, inhibitor 1–100000 µmol/l): 9240 µM | mean plasma concentration after supplementation [5]: 17.3 µM | IC50 (human CAT1 (SLC7A1) [3]; read-out: IC50 for inhibition of CAT1-mediated uptake of L-arginine, substrate L-arginine 1000 µmol/l, inhibitor 1–100000 µmol/l): 1320 µM | IC50 (human CAT1 (SLC7A1) [3]; substrate ADMA 100 µmol/l, inhibitor 1–100000 µmol/l, read-out: IC50 for inhibition of CAT1-mediated uptake of ADMA): 642 µM | Km (rat hepatocytes): 300 µM | cellular uptake of L-homoarginine vs control cells (human CAT1 (SLC7A1) [6]; L-homoarginine 100 µmol/l, HEK CAT1 vs HEK VCG418, p < 0.001): 7 fold | apparent Vmax of CAT1-mediated uptake (human CAT1 (SLC7A1) [6]; [9]): 12 ± 0.1 nmol × mg protein^−1 × min^−1 | Km (human CAT1 (SLC7A1) [6]; net uptake, 2.5 min incubation, 37 °C, read-out: apparent KM of CAT1-mediated uptake): 175 ± 7 µM | Km (fibroblasts): 40 µM | cellular uptake of L-homoarginine vs control cells (human CAT2B (SLC7A2B) [7]; L-homoarginine 100 µmol/l, HEK CAT2B vs control cells, p < 0.001): 2.2 fold | apparent Vmax of CAT2B-mediated uptake (human CAT2B (SLC7A2B) [7]; [9]): 11 ± 0.2 nmol × mg protein^−1 × min^−1 | Km (human CAT2B (SLC7A2B) [7]; net uptake, 2.5 min incubation, 37 °C, read-out: apparent KM of CAT2B-mediated uptake): 523 ± 35 µM

Reference: publication PMC5500509, “The prognostic biomarker L-homoarginine is a substrate of the cationic amino acid transporters CAT1, CAT2A and CAT2B” (Scientific Reports, 2017)
